The values that follow come from patent US8404738B2 (Hoffmann-La Roche Inc., priority 2011, dated 2013).

The IC50 is the point on the concentration scale where inhibition reaches its midpoint. The EC50 is the midpoint of the concentration-response curve.

One assay deals with T1, recombinant human HDAC8 (Homo sapiens, UniProt Q9BY41).
T1 construct: made in house; host or cells: insect cells
T1 sequence (Q9BY41 1-377): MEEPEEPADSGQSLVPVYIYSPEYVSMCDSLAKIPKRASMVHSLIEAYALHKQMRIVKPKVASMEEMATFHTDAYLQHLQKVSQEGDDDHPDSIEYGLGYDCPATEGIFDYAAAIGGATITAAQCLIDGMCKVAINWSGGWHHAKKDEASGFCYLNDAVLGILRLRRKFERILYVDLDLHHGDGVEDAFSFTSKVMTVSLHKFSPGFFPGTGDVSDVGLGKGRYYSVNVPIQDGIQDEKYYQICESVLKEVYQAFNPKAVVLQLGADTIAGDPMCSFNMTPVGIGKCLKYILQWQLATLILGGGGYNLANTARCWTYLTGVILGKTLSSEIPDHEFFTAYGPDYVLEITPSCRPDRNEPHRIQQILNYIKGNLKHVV
Put plainly: HDAC8 inhibition: recombinant HDAC8 fluorometric assay. Type of assay: biochemical. Conditions: recombinant human HDAC8, substrate Ac-Arg-His-Lys-Lys(ε-acetyl)-AMC; read-out: HDAC8 IC50. The method in brief:
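Recombinant human HDAC8 from insect cells was preincubated with compound for 15 min at rt, then given Ac-Arg-His-Lys-Lys(ε-acetyl)-AMC substrate for 30 min at rt. IC50 came from normalized percent inhibition with curve fitting.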

In another assay the target is T2, HDAC6 (Homo sapiens, UniProt Q9UBN7).
T2 construct: endogenous in cells; host or cells: A549 cells
T2 sequence (Q9UBN7 1-1215): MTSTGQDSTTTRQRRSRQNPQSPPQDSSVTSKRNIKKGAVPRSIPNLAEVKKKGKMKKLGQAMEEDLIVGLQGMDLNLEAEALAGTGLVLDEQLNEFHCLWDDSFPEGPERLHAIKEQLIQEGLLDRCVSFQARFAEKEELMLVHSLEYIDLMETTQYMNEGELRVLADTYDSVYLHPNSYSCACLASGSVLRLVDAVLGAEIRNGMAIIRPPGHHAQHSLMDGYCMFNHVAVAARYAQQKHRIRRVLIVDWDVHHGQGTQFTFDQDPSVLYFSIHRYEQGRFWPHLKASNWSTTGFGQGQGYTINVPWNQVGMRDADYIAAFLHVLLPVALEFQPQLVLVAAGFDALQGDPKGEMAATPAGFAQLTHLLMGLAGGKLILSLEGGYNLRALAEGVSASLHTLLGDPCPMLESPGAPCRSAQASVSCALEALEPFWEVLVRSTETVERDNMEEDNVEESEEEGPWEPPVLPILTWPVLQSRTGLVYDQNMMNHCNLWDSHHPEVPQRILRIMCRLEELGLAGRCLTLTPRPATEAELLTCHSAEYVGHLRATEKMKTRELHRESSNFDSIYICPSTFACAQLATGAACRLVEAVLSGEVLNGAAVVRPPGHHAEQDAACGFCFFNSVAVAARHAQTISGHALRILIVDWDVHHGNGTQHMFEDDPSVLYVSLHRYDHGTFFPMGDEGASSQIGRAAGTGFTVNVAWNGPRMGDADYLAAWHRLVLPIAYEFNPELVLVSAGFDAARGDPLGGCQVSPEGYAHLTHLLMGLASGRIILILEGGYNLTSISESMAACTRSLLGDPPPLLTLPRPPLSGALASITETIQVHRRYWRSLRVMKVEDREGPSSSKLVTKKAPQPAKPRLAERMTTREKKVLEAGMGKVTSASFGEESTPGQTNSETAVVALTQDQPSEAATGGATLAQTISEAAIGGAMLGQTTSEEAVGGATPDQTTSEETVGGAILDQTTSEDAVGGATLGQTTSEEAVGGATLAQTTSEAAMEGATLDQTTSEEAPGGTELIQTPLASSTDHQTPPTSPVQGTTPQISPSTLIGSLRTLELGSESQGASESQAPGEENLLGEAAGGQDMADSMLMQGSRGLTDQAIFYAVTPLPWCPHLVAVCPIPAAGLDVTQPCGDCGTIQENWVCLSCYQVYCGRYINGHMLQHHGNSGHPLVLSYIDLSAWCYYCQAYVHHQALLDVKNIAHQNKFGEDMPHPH
Description: Tubulin acetylation cytoblot assay (A549 cells). Type of assay: cell-based. Conditions: 17-18 h incubation, tubulin acetylation as marker of HDAC6 inhibition, read-out: Tub-Ac EC50. The method in brief: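 Cells were exposed to compound for 17-18 h, then fixed with formaldehyde and permeabilized with cold MeOH. They were probed for 4 h at 4° C with anti-acetylated tubulin plus HRP anti-mouse IgG (each 1:750), and read by ECL luminescence. EC50 values came from curves normalized to top and bottom controls.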

In assay [1] the test system is p21 promoter-luciferase construct. Put plainly: p21 reporter gene induction (HeLa cells, p21 promoter-luciferase construct).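 For all read-outs here: transfected HeLa cells exposed to compound for 15 h, luciferase luminescence read from lysates, p21 promoter lacks p53 site, proxy for cellular HDAC1/2/3 inhibition.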 As to conditions: for p21 RP3: relative gene level of p21 compared to MS275 at 3 μM; for p21 RP10: relative level of p21 compared to MS275 at 10 μM; for p21 RP30: relative level of p21 compared to MS275 at 30 μM. For orientation: A reporter such as luciferase makes a cellular process visible.
Description: As a surrogate for in-cell HDAC1/2/3 inhibition, p21 induction was used as a counterscreen to evaluate the selectivity of the compounds in the present invention toward HDAC6 or HDAC8.
The novel compounds of the present invention were tested for their ability to induce p21 gene expression using a reporter gene assay involving HeLa cells transfected with a p21 promoter-luciferase construct. The p21 promoter contained the Sp1/Sp3 binding site for HDAC but not the upstream p53 binding site. Briefly, the day before transfection, HeLa cells were seeded at 11,000 cells/well in a 96-well culture plate and incubated at 37° C. in 5% CO2 overnight. A transfection media was prepared prior to transfection according to the following procedure: (1) 5 μl serum-free DMEM, 0.15 μl Fugene 6 reagent, 40 ng p21-luc, 10 ng GFP were mixed gently and incubated at rt for 30 minutes; (2), then 98 μl DMEM (with 10% FBS, 1% penicillin and streptomycin) was added to the DNA: Fugene 6 reagent complex and mixed gently. For transfection, the medium was removed and replaced with 100 μl/well transfection media which was prepared according to the procedure above. After incubating the cells for 24 hours at 37° C. in 5% CO2, fresh media and test compounds were added to the wells and the cells further incubated for 15 hours at 37° C. in 5% CO2. Cells were lysed by adding 80 μl/well of a cell culture lysis reagent (Promega). 50 μl of each lysate was taken for GFP detection using an excitation wavelength of 486 nm and detection at 527 nm. 100 μl luciferase assay reagent (Promega) was then added to every 20 μl cell lysate for luminometer detection.

`O=C(NO)c1ccc(NC2CCN(c3cccc(Cl)c3)C2=O)cc1` (stereo not shown) [Example 6, 4-[1-(3-Chloro-phenyl)-2-oxo-pyrrolidin-3-ylamino]-N-hydroxy-benzamide]: the concentration for half-maximal inhibition (IC50) at recombinant human HDAC8 stood at 720 nM. Also, the concentration giving a half-maximal response (EC50) at HDAC6 worked out at 2820 nM. In assay [1], the “p21 RP3” value is 0.03, the “p21 RP10” value was found to be 0.15 and the “p21 RP30” value was determined as 0.15.
With `O=C(NO)c1ccc(NC2CCN(c3ccccc3Cl)C2=O)cc1` (stereo not shown) [Example 5, 4-[1-(2-Chloro-phenyl)-2-oxo-pyrrolidin-3-ylamino]-N-hydroxy-benzamide], the IC50 at recombinant human HDAC8 is 370 nM. The EC50 on HDAC6 came out at 6670 nM. Also, in assay [1], the “p21 RP3” value is recorded as −0.01, the “p21 RP10” value amounted to 0.06 and the “p21 RP30” value amounted to 0.08.
Consider `O=C(NO)c1ccc(NC2CCN(C3(c4ccccc4)CCCC3)C2=O)cc1` (stereo not shown) [Example 55, N-Hydroxy-4-[2-oxo-1-(1-phenyl-cyclopentyl)-pyrrolidin-3-ylamino]-benzamide], for which the IC50 at recombinant human HDAC8 turned out to be 820 nM. Moreover, the EC50 at HDAC6 came out at 4750 nM. Moreover, in assay [1], the “p21 RP3” value is listed as 0.43, the “p21 RP10” value came out at 0.20 and the “p21 RP30” value came to 0.50.
`O=C(NO)c1ccc(NC2CCN(c3cccc(C(F)(F)F)c3)C2=O)cc1` (stereo not shown) [Example 11, N-Hydroxy-4-[2-oxo-1-(3-trifluoromethyl-phenyl)-pyrrolidin-3-ylamino]-benzamide]: the IC50 at recombinant human HDAC8 came to 2230 nM. Besides, on HDAC6, the 50% effective concentration (EC50) was found to be 8310 nM. Moreover, in assay [1], the “p21 RP3” value amounted to 0.39, the “p21 RP10” value is recorded as 0.08 and the “p21 RP30” value is given as 0.04.
As to `O=C(NO)c1ccc(NC2CCN(c3cccc(-c4cnco4)c3)C2=O)cc1` (stereo not shown) [Example 35, N-Hydroxy-4-[1-(3-oxazol-5-yl-phenyl)-2-oxo-pyrrolidin-3-ylamino]-benzamide], the IC50 at recombinant human HDAC8 turned out to be 610 nM. Also, the 50% effective concentration (EC50) at HDAC6 was 2040 nM. Further, in assay [1], the “p21 RP3” value came to 0.44, the “p21 RP10” value was 0.25 and the “p21 RP30” value was 0.20.
Regarding `CC1(Nc2ccc(C(=O)NO)cc2)CCN(c2ccc3ncccc3c2)C1=O` (stereo not shown) [Example 63, N-Hydroxy-4-(3-methyl-2-oxo-1-quinolin-6-yl-pyrrolidin-3-ylamino)-benzamide], on recombinant human HDAC8, the IC50 worked out at 890 nM. The EC50 at HDAC6 was found to be 360 nM. In addition, in assay [1], the “p21 RP3” value was found to be 0.47, the “p21 RP10” value amounted to 0.15 and the “p21 RP30” value stood at 0.22.
For the compound `O=C(NO)c1ccc(NC2CCN(c3c(Cl)cccc3Cl)C2)cc1` (stereo not shown) [Example 81, 4-[1-(2,6-Dichloro-phenyl)-pyrrolidin-3-ylamino]-N-hydroxy-benzamide], the 50% inhibitory concentration (IC50) on recombinant human HDAC8 turned out to be 1920 nM. Further, the half-maximal effective concentration (EC50) on HDAC6 came to 720 nM. In addition, in assay [1], the “p21 RP3” value is listed as 0.08, the “p21 RP10” value is given as −0.04 and the “p21 RP30” value is −0.01.
Take `CC1(Nc2ccc(C(=O)NO)cc2)C(=O)N(c2cccc(Cl)c2)c2ccccc21` (stereo not shown) [Example 96, 4-[1-(3-chloro-phenyl)-3-methyl-2-oxo-2,3-dihydro-1H-indol-3-ylamino)-N-hydroxy-benzamide]: at recombinant human HDAC8, the concentration for half-maximal inhibition (IC50) was 1400 nM. Moreover, the EC50 on HDAC6 is 320 nM. Besides, in assay [1], the “p21 RP3” value worked out at 0.86, the “p21 RP10” value was determined as 1.34 and the “p21 RP30” value came out at 0.02.
For `O=C(NO)c1ccc(NC2CCN(Cc3ccccc3)C2=O)cc1` (stereo not shown) [Example 42], at recombinant human HDAC8, the concentration for half-maximal inhibition (IC50) came out at 650 nM. Further, on HDAC6, the concentration giving a half-maximal response (EC50) was 11400 nM. Besides, in assay [1], the “p21 RP3” value is 0.02, the “p21 RP10” value is given as 0.09 and the “p21 RP30” value is given as 0.34.
Regarding `O=C(NO)c1ccc(NC2CCN(c3ccccc3)C2=O)cc1F` (stereo not shown) [Example 66, 2-Fluoro-N-hydroxy-4-(2-oxo-1-phenyl-pyrrolidin-3-ylamino)-benzamide], the IC50 at recombinant human HDAC8 was 1250 nM. Also, the EC50 on HDAC6 turned out to be 2420 nM. For the same compound, in assay [1], the “p21 RP3” value is given as 0.01, the “p21 RP10” value is reported as 0.01 and the “p21 RP30” value came to 0.00.
On to `O=C(NO)c1ccc(NC2CCN(c3ccc4ccccc4c3)C2=O)cc1` (stereo not shown) [Example 38, N-Hydroxy-4-(1-naphthalen-2-yl-2-oxo-pyrrolidin-3-ylamino)-benzamide], for which, at recombinant human HDAC8, the half-maximal inhibitory concentration (IC50) turned out to be 1500 nM. For the same compound, on HDAC6, the EC50 stood at 1060 nM. Also, in assay [1], the “p21 RP3” value worked out at 0.50, the “p21 RP10” value is 0.02 and the “p21 RP30” value is −0.02.
In the case of `O=C(NO)c1ccc(NC2CCN(c3cccc(F)c3)C2=O)cc1` (stereo not shown) [Example 3, 4-[1-(3-Fluoro-phenyl)-2-oxo-pyrrolidin-3-ylamino]-N-hydroxy-benzamide], the concentration for half-maximal inhibition (IC50) on recombinant human HDAC8 stood at 1090 nM. Also, the EC50 at HDAC6 came to 1560 nM. Moreover, in assay [1], the “p21 RP3” value was determined as 0.18, the “p21 RP10” value came to 0.06 and the “p21 RP30” value is on record as 0.08.
With `CC1(Nc2ccc(C(=O)NO)cc2)C(=O)N(c2ccc(Cl)cc2)c2ccc(F)cc21` (stereo not shown) [Example 97, 4-[1-(4-Chloro-phenyl)-5-fluoro-3-methyl-2-oxo-2,3-dihydro-1H-indol-3-ylamino]-N-hydroxy-benzamide], the concentration for half-maximal inhibition (IC50) on recombinant human HDAC8 was found to be 2080 nM. On HDAC6, the concentration giving a half-maximal response (EC50) came to 200 nM. Besides, in assay [1], the “p21 RP3” value came out at 2.39, the “p21 RP10” value is given as 3.56 and the “p21 RP30” value was 0.07.
As for `CC1(Nc2ccc(C(=O)NO)cc2)C(=O)N(Cc2cccc(Cl)c2)c2ccccc21` (stereo not shown) [Example 93, 4-[1-(3-chloro-benzyl)-3-methyl-2-oxo-2,3-dihydro-1H-indol-3-ylamino)-N-hydroxy-benzamide], at recombinant human HDAC8, the concentration for half-maximal inhibition (IC50) amounted to 1920 nM. Besides, at HDAC6, the EC50 came to 410 nM. In addition, in assay [1], the “p21 RP3” value is 0.58, the “p21 RP10” value was 0.12 and the “p21 RP30” value was determined as 0.05.
Turning to `CC1(Nc2ccc(C(=O)NO)cc2)C(=O)N(Cc2ccccc2Cl)c2ccccc21` (stereo not shown) [Example 92], the half-maximal inhibitory concentration (IC50) at recombinant human HDAC8 turned out to be 1740 nM. The EC50 at HDAC6 stood at 330 nM. Besides, in assay [1], the “p21 RP3” value was determined as 0.56, the “p21 RP10” value stood at 0.20 and the “p21 RP30” value is 0.40.
As to `O=C(NO)c1ccc(NC2CCN(c3ccc(Cl)cc3)C2)cc1` (stereo not shown) [Example 80, 4-[1-(4-Chloro-phenyl)-pyrrolidin-3-ylamino]-N-hydroxy-benzamide], the half-maximal inhibitory concentration (IC50) on recombinant human HDAC8 is 4650 nM. Moreover, the EC50 at HDAC6 turned out to be 4260 nM. For the same compound, in assay [1], the “p21 RP3” value came out at 0.37, the “p21 RP10” value is reported as 0.08 and the “p21 RP30” value is listed as −0.05.
As to `O=C(NO)c1ccc(NC2CCN(C3CCCCC3)C2=O)cc1` (stereo not shown) [Example 41, 4-(1-Cyclohexyl-2-oxo-pyrrolidin-3-ylamino)-N-hydroxy-benzamide], the IC50 on recombinant human HDAC8 is 840 nM. Moreover, the EC50 on HDAC6 is 5150 nM. In addition, in assay [1], the “p21 RP3” value worked out at 0.05, the “p21 RP10” value came to 0.02 and the “p21 RP30” value was 0.02.
